Like-named read-outs stand apart in the source and are kept apart here.
Legend:
[1] = Pharmacokinetics of JHG components in pulmonary fibrosis (PF) model rats after intragastric administration of JHGs (plasma, Orbitrap Fusion MS); format: in vivo, Sprague Dawley (SD) rats; conditions: for Cmax, PF model group compared with the control group: medium dose selected for comparison; for pharmacokinetic process (versus dosage): low, medium, high doses of JHGs
Experimental: (§1) Healthy male Sprague Dawley (SD) rats of SPF grade (240 ± 20 g) were purchased from Sipeifu (Beijing, China) Biotechnology Co., Ltd. (Beijing, China), Certificate of Conformity No.: SCYK (Beijing, China) 2019-0015, Animal Quality Certificate No.: 110324220102348616. They were housed in the Animal Center of Henan University of Traditional Chinese Medicine, which passed the ethical audit, ethics number: DWLL202208003, breeding Co. 24 °C, relative humidity 50 ± 2%. The animals fasted for 12 h before the experiment and drank water freely. All feeding and experimental studies on experimental animals were in accordance with the regulations on the Management of Experimental Animals in Henan Province.
The PF model in rats was replicated by reference to the conclusion tracheal intubation method in the literature. After the rats were anesthetized, bleomycin (BLM) (5 mg/kg) was used as an induction agent and followed the tracheal intubation method. BLM solution was aspirated with a 1 mL syringe and injected into the indwelling syringe. A total of 0.3 mL of air was rapidly pushed into the syringe, the rats were immediately stroked upright so that the BLM solution was evenly distributed in both lungs. BLM was given on day 0 for modeling, then gavage was taken after day 28, with fasting without water for 12 h before sampling. The histopathological examination was performed to verify the construction of the PF model. The rats were anesthetized by the abdominal cavity, then the lung tissues were violently shocked by opening the chest, and the right lower lobe of the lung was taken and fixed in 4% formaldehyde solution, then dehydrated by sucrose gradient, paraffin-embedded, and sectioned. H&E and Masson staining were performed to observe the degree of alveolitis of lung tissue and the degree of pulmonary fibrosis, respectively. The inflammation and fibrosis of lung tissues was observed under the light microscope.
(§2) Twenty-four healthy male SD rats or PF model rats, weighing 240 ± 20 g, fasted for 12 h before the experiment and drank water freely. Both kinds of rats were randomly divided into four groups. Blank group: equal dose of water by intragastric, low dose; administration group: rats were given the equivalent human dose of JHGs by intragastric, i.e., 10.8 g of raw drug/kg/d (5.70 g/kg/d); medium-dose administration group: 2 times the human equivalent dose of JHGs by intragastric, i.e., 21.6 g of raw drug/kg/d (11.41 g/kg/d); high-dose administration group: 4 times the human equivalent dose of JHG, i.e., 43.2 g of raw drug/kg/d (22.81 g/kg/d). Blood was collected from the tail vein before and 0.083, 0.25, 0.5, 0.75, 1, 1.5, 2, 3, 4, 6, 8, 12, 18, and 24 h after dosing, respectively. A total of 0.5 mL was placed in a heparin sodium centrifuge tube. Whole blood was left for 30 min and then centrifuged in a low-temperature freezing centrifuge (4 °C, 3000 r/min) for 15 min. The upper layer of plasma was collected and stored in a refrigerator at −80 °C.
(§3) We added 50 μL of internal standard solution and 800 μL of methanol, shook for 15 min, then centrifuged at 12,000 r/min for 10 min, took the supernatant, dried in a centrifuge concentrator, added 50 μL of the initial mobile phase to the residue, dissolved, centrifuged, then separated the upper layer of the solution used as the test solution. A total of 5 μL test solution was taken into the sample for analysis. For each compound with a certain dosage, the same procedure is repeated six times in parallel. The concentration in plasma was calculated by the internal standard method.
Accucore C18 (100 mm × 2.1 mm, 2.6 μm) column at 25 °C, the mobile phase was methanol (A)-0.1% formic acid aqueous solution (B). The gradient elution program was 0–4 min (65% B-40% B), 4–5 min (40% B-40% B), 5–6 min (40% B-28% B), and 6–7 min (28% B-19% B), 7–7.5 min (19% B-10% B), 7.5–11 min (10% B-0% B), the flow rate was 0.2 mL/min, and the injection volume was 5 μL. […]

[2] = Pharmacokinetics of JHG components in control rats after intragastric administration of JHGs (plasma, Orbitrap Fusion MS); format: in vivo, Sprague Dawley (SD) rats; conditions: for pharmacokinetic process (Cmax and AUCs versus dosage): low, medium, high doses of JHGs; for Tmax / AUC(0-inf) / AUC(0-t) / half-life / MRT last / MRT inf / Cmax: male, rat, plasma, po; for MRT last: read-out: MRT(0-t); for MRT inf: read-out: MRT(0-∞); for Cmax: intragastric JHGs
Experimental: as §1, §2, §3
Accucore C18 (100 mm × 2.1 mm, 2.6 μm) column at 25 °C, the mobile phase was methanol (A)-0.1% formic acid aqueous solution (B). The gradient elution program was 0–4 min (65% B-40% B), 4–5 min (40% B-40% B), 5–6 min (40% B-28% B), and 6–7 min (28% B-19% B), 7–7.5 min (19% B-10% B), 7.5–11 min (10% B-0% B), the flow rate was 0.2 mL/min, and the injection volume was 5 μL.
The ion source was an electrospray ionization source (ESI). Nitrogen acted as a carrier gas. The sheath gas pressure was 35 Arb. The auxiliary gas pressure was 7 Arb. The spray voltage was 3.50 kv(+), 2.50 kv(-). The ion transport tube temperature was regulated at 300 °C. Gasification temperature was 275 °C. The resolution was 50,000. The scanning mode was set as SIM mode. The optimized parameters obtained are in Table 5.
Under the established Orbitrap Fusion MS method, the pharmacokinetics of JHG in rats were studied to investigate the dynamic changes of the active components in rats. The pharmacokinetic parameters of each component in each dosing group were calculated by […] model analysis using Kinetica 5.1 (Innaphase, Waltham, MA, USA) pharmacokinetic analysis software. The pharmacotemporal curves were plotted by the plotting software. SPSS 19.0 (IBM, Armonk, NY, USA) was used to analyze all the parameters. Independent sample tests were performed after natural logarithmic transformation for AUC0–t, Cmax. The nonparametric Mann–Whitney test was applied for Tmax, t½, and MRT0–t. p < 0.05 was considered statistically significant.

[3] = Sprague-Dawley, after administration of JHGs, read-out: Tmax of all dosages
[4] = Sprague Dawley, 5.7 g/kg/day, JHGs low dose 5.70 g/kg/d
[5] = Sprague Dawley, 5.7 g/kg/day, JHGs low dose 5.70 g/kg/d, read-out: Tmax
[6] = Sprague Dawley, 5.7 g/kg/day, low dose 5.70 g/kg/d, n=6 (1st of 3 stacked values)
[7] = Sprague Dawley, 11.41 g/kg/day, JHGs medium dose 11.41 g/kg/d
[8] = Sprague Dawley, 11.41 g/kg/day, JHGs medium dose 11.41 g/kg/d, read-out: Tmax
[9] = Sprague Dawley, 11.41 g/kg/day, medium dose 11.41 g/kg/d, n=6 (2nd of 3 stacked values)
[10] = Sprague Dawley, 22.81 g/kg/day, JHGs high dose 22.81 g/kg/d
[11] = Sprague Dawley, 22.81 g/kg/day, JHGs high dose 22.81 g/kg/d, read-out: Tmax
[12] = Sprague Dawley, 22.81 g/kg/day, high dose 22.81 g/kg/d, n=6 (3rd of 3 stacked values)

Structure (SMILES): OC[C@H]1O[C@@H](O[C@@H]2OC=C[C@H]3[C@H](O)[C@@H]4O[C@]4(CO)[C@@H]23)[C@H](O)[C@@H](O)[C@@H]1O [Catalpol]
- Cmax, PF model group compared with the control group ([1]; PF model vs control rats): significantly decreased

Structure (SMILES): CC(C)=CCC[C@](C)(O[C@@H]1O[C@H](CO[C@@H]2O[C@H](CO)[C@@H](O)[C@H](O)[C@H]2O)[C@@H](O)[C@H](O)[C@H]1O)[C@H]1CC[C@]2(C)[C@@H]1[C@H](O)C[C@@H]1[C@@]3(C)CC[C@H](O[C@@H]4O[C@H](CO)[C@@H](O)[C@H](O)[C@H]4O[C@@H]4O[C@H](CO)[C@@H](O)[C@H](O)[C@H]4O)C(C)(C)[C@@H]3CC[C@]12C [Ginsenoside Rb1]
- pharmacokinetic process (versus dosage) ([1]; PF model rats): linear pharmacokinetic process
- Cmax, PF model group compared with the control group ([1]; PF model vs control rats): significantly decreased
- AUCs, PF model group compared with the control group ([1]; PF model vs control rats, p < 0.05): significantly decreased
- pharmacokinetic process (Cmax and AUCs versus dosage) [2]: linear pharmacokinetic process

Structure (SMILES): CC(C)=CCC[C@](C)(O[C@@H]1O[C@H](CO[C@@H]2O[C@@H](CO)[C@H](O)[C@H]2O)[C@@H](O)[C@H](O)[C@H]1O)[C@H]1CC[C@]2(C)[C@@H]1[C@H](O)C[C@@H]1[C@@]3(C)CC[C@H](O[C@@H]4O[C@H](CO)[C@@H](O)[C@H](O)[C@H]4O[C@@H]4O[C@H](CO)[C@@H](O)[C@H](O)[C@H]4O)C(C)(C)[C@@H]3CC[C@]12C [Ginsenoside Rc]
- shape of plasma concentration–time curve ([1]; PF model group, medium- and high-dose groups, compared to control group): double peaks phenomenon
- pharmacokinetic process (Cmax and AUCs versus dosage) [2]: linear pharmacokinetic process
- Tmax [2, 3]: ≤ 2 h

Structure (SMILES): COc1ccc([C@@H]2CC(=O)c3c(O)cc(O[C@@H]4O[C@H](CO[C@@H]5O[C@@H](C)[C@H](O)[C@@H](O)[C@H]5O)[C@@H](O)[C@H](O)[C@H]4O)cc3O2)cc1O [Hesperidin]
- Tmax, PF model group compared with the control group ([1]; PF model vs control rats): decreased significantly

Structure (SMILES): COc1ccc(-c2oc3c(CC=C(C)C)c(O[C@@H]4O[C@H](CO)[C@@H](O)[C@H](O)[C@H]4O)cc(O)c3c(=O)c2O[C@@H]2O[C@@H](C)[C@H](O)[C@@H](O)[C@H]2O)cc1 [Icariin]
- Tmax ([1]; male, Sprague-Dawley, rat, plasma, po, PF model rats, after administration of JHGs, read-out: Tmax of all dosages): ≤ 2 h
- pharmacokinetic process (Cmax and AUCs versus dosage) [2]: linear pharmacokinetic process
- Tmax [2, 3]: ≤ 2 h

Structure (SMILES): C[C@@H]1O[C@@H](O[C@@H]2[C@@H](O)[C@H](OCCc3ccc(O)c(O)c3)O[C@H](COC(=O)/C=C/c3ccc(O)c(O)c3)[C@H]2O)[C@H](O)[C@H](O)[C@H]1O [Isoacteoside]
- pharmacokinetic process (versus dosage) ([1]; PF model rats): linear pharmacokinetic process
- Tmax, PF model group compared with the control group ([1]; PF model vs control rats): increased about three times
- Clearances ([2]; JHGs high dose 22.81 g/kg/d): 18.7 ± 3.83 mL/min/kg
- Vss ([2]; JHGs high dose 22.81 g/kg/d): 9.42 ± 1.03 L
- Clearances ([2]; JHGs low dose 5.70 g/kg/d): 15.2 ± 3 mL/min/kg
- Vss ([2]; JHGs low dose 5.70 g/kg/d): 8.97 ± 2.22 L
- Clearances ([2]; JHGs medium dose 11.41 g/kg/d): 15.7 ± 1.7 mL/min/kg
- Vss ([2]; JHGs medium dose 11.41 g/kg/d): 9.67 ± 3.39 L
- pharmacokinetic process (Cmax and AUCs versus dosage) [2]: linear pharmacokinetic process
- AUC(0-inf) [2, 4]: 35.8 ± 5.5 ng·h/mL
- AUC(0-t) [2, 4]: 32.2 ± 4.75 ng·h/mL
- half-life [2, 4]: 6.86 ± 0.48 h
- MRT last [2, 4]: 7.15 ± 0.14 h
- MRT inf [2, 4]: 9.81 ± 0.84 h
- Tmax [2, 5]: 1 h
- Cmax [2, 6]: 5.67 ± 1 ng/mL
- AUC(0-inf) [2, 7]: 61.5 ± 8.17 ng·h/mL
- AUC(0-t) [2, 7]: 54.9 ± 7.53 ng·h/mL
- half-life [2, 7]: 8.24 ± 4.54 h
- MRT last [2, 7]: 7.03 ± 0.29 h
- MRT inf [2, 7]: 10.4 ± 4.06 h
- Tmax [2, 8]: 2 h
- Cmax [2, 9]: 9.31 ± 1.05 ng/mL
- AUC(0-inf) [2, 10]: 104 ± 22.4 ng·h/mL
- AUC(0-t) [2, 10]: 96.4 ± 18.1 ng·h/mL
- half-life [2, 10]: 6.1 ± 0.77 h
- MRT last [2, 10]: 6.64 ± 0.33 h
- MRT inf [2, 10]: 8.58 ± 0.98 h
- Tmax [2, 11]: 3 h
- Cmax [2, 12]: 18.4 ± 1.98 ng/mL

Structure (SMILES): CC1CCC2N(C1)CC1C3CC4C(CC(O)C5CC(O)CCC54C)C3CCC1C2(C)O (centres unmarked) [Peimine]
- MRT(0–t), PF model group compared with the control group ([1]; PF model vs control rats): decreased
- Clearances ([2]; JHGs high dose 22.81 g/kg/d): 88.7 ± 12.2 mL/min/kg
- Vss ([2]; JHGs high dose 22.81 g/kg/d): 60.06 ± 7.12 L
- Clearances ([2]; JHGs low dose 5.70 g/kg/d): 31 ± 7.83 mL/min/kg
- Vss ([2]; JHGs low dose 5.70 g/kg/d): 131.39 ± 53.45 L
- Clearances ([2]; JHGs medium dose 11.41 g/kg/d): 75.5 ± 9.5 mL/min/kg
- Vss ([2]; JHGs medium dose 11.41 g/kg/d): 61.2 ± 9.95 L
- pharmacokinetic process (Cmax and AUCs versus dosage) [2]: linear pharmacokinetic process
- AUC(0-inf) [2, 4]: 24.7 ± 5.52 ng·h/mL
- AUC(0-t) [2, 4]: 7.38 ± 2.13 ng·h/mL
- half-life [2, 4]: 52.1 ± 30.7 h
- MRT last [2, 4]: 11.1 ± 0.12 h
- MRT inf [2, 4]: 75.3 ± 41.8 h
- Tmax [2, 5]: 4 h
- Cmax [2, 6]: 0.57 ± 0.22 ng/mL
- AUC(0-inf) [2, 7]: 17.6 ± 2.24 ng·h/mL
- AUC(0-t) [2, 7]: 14.6 ± 1.9 ng·h/mL
- half-life [2, 7]: 8.02 ± 0.39 h
- MRT last [2, 7]: 8.8 ± 0.32 h
- MRT inf [2, 7]: 13.5 ± 0.58 h
- Tmax [2, 8]: 3.33 ± 0.58 h
- Cmax [2, 9]: 1.49 ± 0.26 ng/mL
- AUC(0-inf) [2, 10]: 29.9 ± 4.92 ng·h/mL
- AUC(0-t) [2, 10]: 26.6 ± 4.11 ng·h/mL
- half-life [2, 10]: 7.23 ± 0.62 h
- MRT last [2, 10]: 8.43 ± 0.11 h
- MRT inf [2, 10]: 11.3 ± 0.63 h
- Tmax [2, 11]: 2.67 ± 0.58 h
- Cmax [2, 12]: 2.53 ± 0.56 ng/mL

From article PMC10534582, “A Pharmacokinetic Study of Sixteen Major Bioactive Components of Jinshui-Huanxian Granules in Pulmonary Fibrosis Model and Control Rats Using Orbitrap Fusion Mass Spectrometry” (Molecules, 2023)
